From PMC9598531 (Biology, 2022)
Like-named read-outs stand apart in the source and are kept apart here.

Tests used:
human KMO [1] = molecular target: T1, human KMO (Homo sapiens, UniProt O15229); assay: KMO enzyme activity (inhibitor screening kit) assay; type: biochemical; set-up: purchased BPS Bioscience; conditions: for inhibition at 100 µM: read-out: % inhibition of KMO enzyme activity; for IC50: human KMO enzyme
Protocol: The enzymatic assay was performed in duplicate. Ro 61-8048 was used as the positive control. The test compounds were dissolved in DMSO at 100 mM and diluted to 1 mM in assay buffer. A reaction mixture of assay buffer (50 μL), human KMO (20 μg/mL; 50 μL), test compounds (1 mM; 10 μL), and substrate (40 μL NADPH (10 mM) plus L-Kyn (20 mM)) were incubated in a 96-well plate at room temperature for 1.5 h. The absorbance was recorded at 340 nm. The enzyme activity was expressed as % activity as follows: % Activity=[(Abssample−Absblank)/(Abscontrol−Absblank)]×100
% Inhibition was calculated by subtracting the % activity from 100%.

KMO [2] = conditions: KMO inhibitor; cited from earlier work
human KMO [3] = molecular target: T1, human KMO; assay: Competitive SPR binding assay; conditions: for Experimental RU: CFA 75 μM, Ro 61-8048 5 μM, alone or combined
Protocol: HBS-P+ (20 mM; 0.02 M HEPES, 0.3 M NaCl, 0.1% v/v surfactant P20; pH 7.4) containing 3% DMSO was used as the running buffer. […] Ro 61-8048 was prepared as a final concentration of 5 μM in running buffer. […] FO(A)=1/1+KDA/CA(1+CB/KDB);FO(B)=1/1+KDB/CB(1+CA/KDA) where CA and CB are the respective concentrations of both binders, and KDA and KDB represent the equilibrium dissociation constants of the binders. The FO values were used to calculate the theoretical RU representative of competing compounds using the following equation [23]: Robserved=FO(A)·Rmax(A)+FO(B)·Rmax(B)

human KMO [4] = molecular target: T1, human KMO; assay: SPR binding assay (Biacore T200); set-up: purchased Cosmo Bio USA; conditions: for Kon: association rate; for Kd: dissociation constant
Protocol: The protein was manually immobilized on a Series S Sensor Chip CM5 based on an amine coupling method with minor modification. An SPR assay was conducted on the Biacore T200 SPR instrument (Cytiva; Marlborough, MA, USA). […] Ro 61-8048 stock solution (6 mM; dissolved in DMSO) was diluted into a series of concentrations ranging from 1.25 to 20 μM in the running buffer.

human KMO [5] = molecular target: T1, human KMO; assay: KMO enzyme activity (inhibitor screening kit) assay; type: biochemical; set-up: purchased BPS Bioscience; conditions: read-out: % inhibition of KMO
[6] = set-up: method as in PMID 21640374; conditions: cited from earlier work
KMO [7] = tested on: KMO; set-up: method as in PMID 28464785; conditions: rat liver and kidney homogenates in vitro; cited from earlier work

T1 sequence (O15229 whole entry): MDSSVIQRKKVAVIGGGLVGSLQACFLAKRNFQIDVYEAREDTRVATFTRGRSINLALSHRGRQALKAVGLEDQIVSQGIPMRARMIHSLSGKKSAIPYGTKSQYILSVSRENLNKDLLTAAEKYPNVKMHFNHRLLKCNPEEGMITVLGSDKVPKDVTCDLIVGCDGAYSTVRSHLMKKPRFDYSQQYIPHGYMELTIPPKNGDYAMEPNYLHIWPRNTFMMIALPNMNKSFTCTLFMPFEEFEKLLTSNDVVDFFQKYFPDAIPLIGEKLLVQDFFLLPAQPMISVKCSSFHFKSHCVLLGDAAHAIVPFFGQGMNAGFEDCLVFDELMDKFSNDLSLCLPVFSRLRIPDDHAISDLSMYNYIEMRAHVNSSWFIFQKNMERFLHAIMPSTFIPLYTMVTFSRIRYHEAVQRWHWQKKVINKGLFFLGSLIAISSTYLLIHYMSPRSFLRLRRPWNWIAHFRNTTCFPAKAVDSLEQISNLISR

Structure (SMILES): C=C(C)[C@@H]1CCC(C)=C[C@H]1c1c(O)cc(CCCCC)cc1O [CBD, cannabidiol, reference compound]
- inhibition at 100 µM (human KMO [1]): 6%

Structure (SMILES): NC(CC(=O)c1cccc([N+](=O)[O-])c1)C(=O)O (stereo not drawn)
- IC50 (KMO [2]): 0.9 µM

Structure (SMILES): CCCCCc1cc(O)c2c(c1)OC(C)(C)c1ccc(C)cc1-2 [CBN, cannabinol]
- inhibition at 100 µM (human KMO [1]): 0%

Structure (SMILES): CCCCCc1cc(O)c(C/C=C(\C)CCC=C(C)C)c(O)c1 [CBG, cannabigerol]
- inhibition at 100 µM (human KMO [1]): 1%

Structure (SMILES): CCCCCc1cc(O)c2c(c1)OC(C)(CCC=C(C)C)C=C2 (stereo not drawn) [CBC, cannabichromene]
- inhibition at 100 µM (human KMO [1]): 0%

Structure (SMILES): C=C(C)[C@@H]1CCC(C)=C[C@H]1c1c(O)cc(CCC)cc1O [CBDV, cannabidivarin]
- inhibition at 100 µM (human KMO [1]): 0%

Structure (SMILES): COc1cc(-c2cc(=O)c3c(O)c(C/C=C(\C)CCC=C(C)C)c(O)cc3o2)ccc1O [CFA, cannflavin A]
- Experimental RU (human KMO [3]): 27 RU
- binding mode of CFA and Ro 61-8048 to the KMO protein (human KMO [3]; competitive SPR analysis): competitive, rather than non-competitive binding
- Kon (human KMO [4]; SPR): 0.3 ×10^3, 1/Ms
- Kd (human KMO [4]; SPR): 41 µM
- Koff (human KMO [4]; SPR, dissociation rate): 14.2 ×10^−3, 1/s
- kon (human KMO [4]; SPR, read-out: association rate): 300 M⁻¹ s⁻¹
- Koff (human KMO [4]; SPR, read-out: dissociation rate): 0.0142 s⁻¹
- binding response unit (RU) (human KMO [4]; at 10 μM): 5.6 RU
- binding response unit (RU) (human KMO [4]; at 19 μM): 10.4 RU
- binding response unit (RU) (human KMO [4]; at 38 μM): 17.9 RU
- binding response unit (RU) (human KMO [4]; at 150 μM): 35.7 RU
- binding response unit (RU) (human KMO [4]; at 300 μM): 40.7 RU
- IC50 (human KMO [1]): 29.4 µM
- inhibition at 100 µM (human KMO [1]): 99%
- inhibition at 2.5 µM (human KMO [5]): 8.5%
- inhibition at 5 µM (human KMO [5]): 15%
- inhibition at 20 µM (human KMO [5]): 38%
- inhibition at 40 µM (human KMO [5]): 59%

Structure (SMILES): O=C(O)[C@H]1C[C@@H]1C(=O)c1ccc(Cl)c(Cl)c1 [UPF-648]
- IC50 (KMO [2]): 0.04 µM

Structure (SMILES): CCCCCc1cc(O)c2c(c1)OC(C)(C)C1=C2C(O)C(C)(O)CC1 (stereo not drawn) [CBT, cannabitriol]
- % inhibition of KMO enzyme activity (human KMO [1]; at 100 μM): 11%

Structure (SMILES): CCCCCc1cc(O)c(C/C=C(\C)CCC=C(C)C)c(O)c1C(=O)O [CBGA, cannabigerolic acid]
- inhibition at 100 µM (human KMO [1]): 1%

Structure (SMILES): CCCCCc1cc(O)c2c(c1)OC(C)(C)[C@@H]1CC=C(C)C[C@@H]21 [Δ^8 THC, delta-8-Tetrahydrocannabinol]
- inhibition at 100 µM (human KMO [1]): 1%

Structure (SMILES): COc1ccc(S(=O)(=O)Nc2nc(-c3cccc([N+](=O)[O-])c3)cs2)cc1OC [Ro 61-8048, 3,4-Dimethoxy-[-N-4-(Nitrophenyl)Thiazol-2YL]-Benzenesulfonamide, reference compound]
- Experimental RU (human KMO [3]): 19 RU
- Kon (human KMO [4]; SPR): 3.7 ×10^3, 1/Ms
- Kd (human KMO [4]; SPR): 11 µM
- Koff (human KMO [4]; SPR, dissociation rate): 38.5 ×10^−3, 1/s
- binding response unit (RU) (human KMO [4]; at 1 μM): 1.48 RU
- binding response unit (RU) (human KMO [4]; at 3 μM): 2.99 RU
- binding response unit (RU) (human KMO [4]; at 10 μM): 13.4 RU
- binding response unit (RU) (human KMO [4]; at 20 μM): 27.0 RU
- IC50 (human KMO [1]): 5.1 µM
- crossing of the blood brain barrier [6]: cannot cross the blood brain barrier
- IC50 (KMO [7]): 0.037 µM
